# Reference: patent US20250084039A1, “4-SUBSTITUTED AMINOISOQUINOLINE DERIVATIVES” (Purdue Research Foundation, priority 2016, published 2025)
# Experiments:
# Experiment in all cases: Reaction Biology HotSpot kinase assay
# Assay type in all cases: biochemical
# PAK1 = PAK1 (Homo sapiens (Human), UniProt Q13153); conditions: 500 nM compound; for inhibition at 0.5 µM: read-out: Percentage kinase inhibition PAK1
# Procedure, shortened: (§1)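 Single-point screen, 500 nM cpd; 20 min preinc with enzyme/substrate; start with ATP + 33P-ATP, 100 μM final; 2 h RT; P81 filter capture. Buffer: 20 mM HEPES pH 7.5, 10 mM MgCl2, 1 mM EGTA, 0.02% Brij35, 1% DMSO. Data as % activity vs DMSO.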
# TYK2 = TYK2 (Homo sapiens (Human), UniProt P29597); conditions: 500 nM compound; for inhibition at 0.5 µM: read-out: Percentage kinase inhibition TYK2
# Procedure, shortened: as §1
# EPHA3 = EPHA3 (Homo sapiens (Human), UniProt P29320); conditions: 500 nM compound; for inhibition at 0.5 µM: read-out: Percentage kinase inhibition EPHA3
# Procedure, shortened: as §1
# MELK = MELK (Homo sapiens (Human), UniProt Q14680); conditions: 500 nM compound; for inhibition at 0.5 µM: read-out: Percentage kinase inhibition MELK
# Procedure, shortened: as §1
# CDK1/cyclin E = CDK1/cyclin E (Homo sapiens (Human), UniProt P06493); conditions: 500 nM compound; for inhibition at 0.5 µM: read-out: Percentage kinase inhibition CDK1/cyclin E
# Procedure, shortened: as §1
# PKD2/PRKD2 = PKD2/PRKD2 (Homo sapiens (Human), UniProt Q9BZL6); conditions: 500 nM compound; for inhibition at 0.5 µM: read-out: Percentage kinase inhibition PKD2/PRKD2
# Procedure, shortened: as §1
# MUSK = MUSK (Homo sapiens (Human), UniProt O15146); conditions: 500 nM compound; for inhibition at 0.5 µM: read-out: Percentage kinase inhibition MUSK
# Procedure, shortened: as §1
# TAOK1 = TAOK1 (Homo sapiens (Human), UniProt Q7L7X3); conditions: 500 nM compound; for inhibition at 0.5 µM: read-out: Percentage kinase inhibition TAOK1
# Procedure, shortened: as §1
# CDK4/cyclin D1 = CDK4/cyclin D1 (Homo sapiens (Human), UniProt P11802); conditions: 500 nM compound; for inhibition at 0.5 µM: read-out: Percentage kinase inhibition CDK4/cyclin D1
# Procedure, shortened: (§2)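 Phosphotransfer from [γ-33P]ATP was quantified after filter binding on P81 paper. Conditions: 20 mM HEPES pH 7.5, 10 mM MgCl2, 0.1 mM Na3VO4, 2 mM DTT, 0.02 mg/mL BSA; ATP 100 μM final; 2 h at room temperature. Compound was dosed at 500 nM.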
# CDK9/cyclin T2 = CDK9/cyclin T2 (Homo sapiens (Human), UniProt P50750); conditions: 500 nM compound; for inhibition at 0.5 µM: read-out: Percentage kinase inhibition CDK9/cyclin T2
# Procedure, shortened: as §1
# IGF1R = IGF1R (Homo sapiens (Human), UniProt P08069); conditions: 500 nM compound; for inhibition at 0.5 µM: read-out: Percentage kinase inhibition IGF1R
# Procedure, shortened: as §1
# c-kit = c-kit (Homo sapiens (Human), UniProt P10721); conditions: 500 nM compound, 100 μM radiolabeled ATP
# Procedure, shortened: as §2
# MEKK1 = MEKK1 (Homo sapiens (Human), UniProt Q13233); conditions: 500 nM compound; for inhibition at 0.5 µM: read-out: Percentage kinase inhibition MEKK1
# Procedure, shortened: as §1
# RON/MST1R = RON/MST1R (Homo sapiens (Human), UniProt Q04912); conditions: 500 nM compound; for inhibition at 0.5 µM: read-out: Percentage kinase inhibition RON/MST1R
# Procedure, shortened: as §1
# IR = IR (Homo sapiens (Human), UniProt P06213); conditions: 500 nM compound; for inhibition at 0.5 µM: read-out: Percentage kinase inhibition IR
# Procedure, shortened: as §1
# RAF1 = conditions: 500 nM compound
# Procedure, shortened: as §1
# P38a/MAPK14 = P38a/MAPK14 (Homo sapiens (Human), UniProt Q16539); conditions: 500 nM compound; for inhibition at 0.5 µM: read-out: Percentage kinase inhibition P38a/MAPK14
# Procedure, shortened: as §1
# JNK1 = JNK1 (Homo sapiens (Human), UniProt P45983); conditions: 500 nM compound; for inhibition at 0.5 µM: read-out: Percentage kinase inhibition JNK1
# Procedure, shortened: as §1
# KSR1 = KSR1 (Homo sapiens (Human), UniProt Q8IVT5); conditions: 500 nM compound; for inhibition at 0.5 µM: read-out: Percentage kinase inhibition KSR1
# Procedure, shortened: as §1
# RET = RET (Homo sapiens (Human), UniProt P07949); conditions: 500 nM compound; for inhibition at 0.5 µM: read-out: Percentage kinase inhibition RET
# Procedure, shortened: as §1
# HIPK1 = HIPK1 (Homo sapiens (Human), UniProt Q86Z02); conditions: 500 nM compound; for inhibition at 0.5 µM: read-out: Percentage kinase inhibition HIPK1
# Procedure, shortened: as §1
# AKT2 = AKT2 (Homo sapiens (Human), UniProt P31751); conditions: 500 nM compound; for inhibition at 0.5 µM: read-out: Percentage kinase inhibition AKT2
# Procedure, shortened: as §1
# TGFBR2 = TGFBR2 (Homo sapiens (Human), UniProt P37173); conditions: 500 nM compound; for inhibition at 0.5 µM: read-out: Percentage kinase inhibition TGFBR2
# Procedure, shortened: as §1
# PDK1/PDHK1 = PDK1/PDHK1 (Homo sapiens (Human), UniProt Q15118); conditions: 500 nM compound; for inhibition at 0.5 µM: read-out: Percentage kinase inhibition PDK1/PDHK1
# Procedure, shortened: as §1
# BRK = BRK (Homo sapiens (Human), UniProt Q13882); conditions: 500 nM compound; for inhibition at 0.5 µM: read-out: Percentage kinase inhibition BRK
# Procedure, shortened: as §2
# CSK = CSK (Homo sapiens (Human), UniProt P41240); conditions: 500 nM compound; for inhibition at 0.5 µM: read-out: Percentage kinase inhibition CSK
# Procedure, shortened: as §1
# LYN = LYN (Homo sapiens (Human), UniProt P07948); conditions: 500 nM compound; for inhibition at 0.5 µM: read-out: Percentage kinase inhibition LYN
# Procedure, shortened: as §1
# DDR2 = DDR2 (Homo sapiens (Human), UniProt Q16832); conditions: 500 nM compound; for inhibition at 0.5 µM: read-out: Percentage kinase inhibition DDR2
# Procedure, shortened: as §1
# IRR/INSRR = IRR/INSRR (Homo sapiens (Human), UniProt P14616); conditions: 500 nM compound; for inhibition at 0.5 µM: read-out: Percentage kinase inhibition IRR/INSRR
# Procedure, shortened: as §1
# CDK2/cyclin A = CDK2/cyclin A (Homo sapiens (Human), UniProt P24941); conditions: 500 nM compound; for inhibition at 0.5 µM: read-out: Percentage kinase inhibition CDK2/cyclin A
# Procedure, shortened: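 Compounds were screened at one concentration, 500 nM, in a radiometric kinase reaction. After a 20-minute preincubation with enzyme and substrate in pH 7.5 HEPES buffer (1% DMSO), the mixture received 100 μM ATP containing [γ-33P]ATP and was left 2 h at room temperature.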
# FER = FER (Homo sapiens (Human), UniProt P16591); conditions: 500 nM compound; for inhibition at 0.5 µM: read-out: Percentage kinase inhibition FER
# Procedure, shortened: as §1
# Chain of AKT2 (P31751 whole entry): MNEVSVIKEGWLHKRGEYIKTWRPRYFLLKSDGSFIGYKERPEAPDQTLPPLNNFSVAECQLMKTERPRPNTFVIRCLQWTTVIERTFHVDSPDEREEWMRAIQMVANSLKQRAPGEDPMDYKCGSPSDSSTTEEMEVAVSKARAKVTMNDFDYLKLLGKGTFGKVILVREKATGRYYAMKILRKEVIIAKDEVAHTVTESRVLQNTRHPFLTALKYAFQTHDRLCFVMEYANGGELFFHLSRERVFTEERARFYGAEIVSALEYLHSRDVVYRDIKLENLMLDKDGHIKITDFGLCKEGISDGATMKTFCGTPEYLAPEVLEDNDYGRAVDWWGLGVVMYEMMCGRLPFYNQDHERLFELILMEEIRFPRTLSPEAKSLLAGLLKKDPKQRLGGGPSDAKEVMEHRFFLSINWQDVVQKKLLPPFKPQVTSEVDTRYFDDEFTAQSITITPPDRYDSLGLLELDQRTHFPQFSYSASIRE
# Chain of CDK1/cyclin E (P06493 whole entry): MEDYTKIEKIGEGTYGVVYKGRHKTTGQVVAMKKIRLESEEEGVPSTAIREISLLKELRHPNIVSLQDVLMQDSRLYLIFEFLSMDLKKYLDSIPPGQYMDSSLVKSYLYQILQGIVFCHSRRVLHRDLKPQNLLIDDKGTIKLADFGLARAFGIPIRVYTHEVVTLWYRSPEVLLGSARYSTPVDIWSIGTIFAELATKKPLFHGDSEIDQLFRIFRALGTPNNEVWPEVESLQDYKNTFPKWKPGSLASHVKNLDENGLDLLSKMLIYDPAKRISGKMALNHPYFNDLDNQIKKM
# Chain of CDK1/cyclin E (P24864 whole entry partner): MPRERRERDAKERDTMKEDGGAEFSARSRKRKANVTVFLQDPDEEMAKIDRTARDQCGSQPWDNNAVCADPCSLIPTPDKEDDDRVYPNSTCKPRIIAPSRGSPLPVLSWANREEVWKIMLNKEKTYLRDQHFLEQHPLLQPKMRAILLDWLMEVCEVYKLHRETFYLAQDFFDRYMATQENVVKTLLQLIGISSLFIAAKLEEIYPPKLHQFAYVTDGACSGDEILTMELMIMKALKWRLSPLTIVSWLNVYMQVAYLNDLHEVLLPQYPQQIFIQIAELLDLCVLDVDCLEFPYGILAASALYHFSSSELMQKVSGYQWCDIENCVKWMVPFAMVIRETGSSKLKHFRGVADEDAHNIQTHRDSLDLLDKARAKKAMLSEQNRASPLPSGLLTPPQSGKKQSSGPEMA
# Chain of LYN (P07948 whole entry): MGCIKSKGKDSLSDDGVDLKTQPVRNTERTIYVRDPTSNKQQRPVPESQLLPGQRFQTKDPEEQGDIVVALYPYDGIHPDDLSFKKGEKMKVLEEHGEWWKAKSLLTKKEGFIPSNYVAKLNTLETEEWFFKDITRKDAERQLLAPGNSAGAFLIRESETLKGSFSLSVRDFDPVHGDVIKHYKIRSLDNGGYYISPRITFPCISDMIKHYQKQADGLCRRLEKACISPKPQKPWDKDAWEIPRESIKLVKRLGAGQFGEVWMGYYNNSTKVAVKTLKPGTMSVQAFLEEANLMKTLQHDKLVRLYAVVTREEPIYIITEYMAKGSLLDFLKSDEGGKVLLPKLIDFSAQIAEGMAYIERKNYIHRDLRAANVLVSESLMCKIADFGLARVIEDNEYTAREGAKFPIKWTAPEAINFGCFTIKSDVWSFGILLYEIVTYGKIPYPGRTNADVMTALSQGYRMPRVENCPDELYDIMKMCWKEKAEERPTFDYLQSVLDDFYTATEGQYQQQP
# Chain of TGFBR2 (P37173 23-567): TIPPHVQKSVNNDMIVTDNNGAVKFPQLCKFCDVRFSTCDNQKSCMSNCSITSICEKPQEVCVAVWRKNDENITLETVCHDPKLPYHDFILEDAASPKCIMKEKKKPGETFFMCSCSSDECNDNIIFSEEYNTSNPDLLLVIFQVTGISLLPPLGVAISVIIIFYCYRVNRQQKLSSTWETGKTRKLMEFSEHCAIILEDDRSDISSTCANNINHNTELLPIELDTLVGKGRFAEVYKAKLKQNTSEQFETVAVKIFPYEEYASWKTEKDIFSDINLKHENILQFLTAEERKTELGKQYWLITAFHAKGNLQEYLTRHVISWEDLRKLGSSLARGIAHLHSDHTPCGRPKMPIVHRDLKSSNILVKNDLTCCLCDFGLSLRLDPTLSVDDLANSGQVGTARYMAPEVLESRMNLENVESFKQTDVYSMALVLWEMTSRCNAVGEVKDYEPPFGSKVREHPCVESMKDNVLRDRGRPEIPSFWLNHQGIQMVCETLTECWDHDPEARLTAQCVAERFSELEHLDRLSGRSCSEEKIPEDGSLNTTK
# Chain of HIPK1 (Q86Z02 whole entry): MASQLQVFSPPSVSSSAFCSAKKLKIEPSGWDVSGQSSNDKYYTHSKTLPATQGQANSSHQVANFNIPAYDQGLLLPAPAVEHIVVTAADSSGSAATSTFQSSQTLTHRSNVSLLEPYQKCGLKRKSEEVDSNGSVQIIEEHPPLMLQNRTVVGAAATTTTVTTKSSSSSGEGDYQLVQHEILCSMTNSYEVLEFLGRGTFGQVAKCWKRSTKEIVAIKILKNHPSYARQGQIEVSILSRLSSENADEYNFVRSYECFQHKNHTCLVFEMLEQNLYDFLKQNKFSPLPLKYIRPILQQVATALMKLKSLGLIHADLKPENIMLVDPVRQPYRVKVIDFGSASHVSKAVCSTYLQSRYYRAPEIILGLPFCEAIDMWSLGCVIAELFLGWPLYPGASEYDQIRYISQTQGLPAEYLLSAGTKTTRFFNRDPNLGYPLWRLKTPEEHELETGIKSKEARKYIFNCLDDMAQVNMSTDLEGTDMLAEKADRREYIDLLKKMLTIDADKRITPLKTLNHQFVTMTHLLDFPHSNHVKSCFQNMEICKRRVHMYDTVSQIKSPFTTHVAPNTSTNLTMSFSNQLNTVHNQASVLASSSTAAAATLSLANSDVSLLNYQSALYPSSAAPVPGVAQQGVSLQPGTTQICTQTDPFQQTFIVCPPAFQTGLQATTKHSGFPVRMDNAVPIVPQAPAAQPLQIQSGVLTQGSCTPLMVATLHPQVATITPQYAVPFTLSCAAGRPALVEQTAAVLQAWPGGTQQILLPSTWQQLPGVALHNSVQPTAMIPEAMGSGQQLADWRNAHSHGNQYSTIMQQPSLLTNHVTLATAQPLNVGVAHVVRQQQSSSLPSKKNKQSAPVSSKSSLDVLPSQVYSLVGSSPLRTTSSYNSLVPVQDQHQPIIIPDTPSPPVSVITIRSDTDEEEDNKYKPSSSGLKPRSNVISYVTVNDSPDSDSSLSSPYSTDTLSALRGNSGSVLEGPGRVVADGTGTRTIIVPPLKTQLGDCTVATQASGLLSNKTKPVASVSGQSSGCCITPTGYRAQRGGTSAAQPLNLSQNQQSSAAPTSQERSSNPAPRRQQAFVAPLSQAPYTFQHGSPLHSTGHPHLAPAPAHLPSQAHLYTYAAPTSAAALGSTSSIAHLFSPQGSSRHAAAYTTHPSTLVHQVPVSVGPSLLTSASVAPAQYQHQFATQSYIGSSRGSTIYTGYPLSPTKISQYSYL
# Chain of RON/MST1R (Q04912 25-1400): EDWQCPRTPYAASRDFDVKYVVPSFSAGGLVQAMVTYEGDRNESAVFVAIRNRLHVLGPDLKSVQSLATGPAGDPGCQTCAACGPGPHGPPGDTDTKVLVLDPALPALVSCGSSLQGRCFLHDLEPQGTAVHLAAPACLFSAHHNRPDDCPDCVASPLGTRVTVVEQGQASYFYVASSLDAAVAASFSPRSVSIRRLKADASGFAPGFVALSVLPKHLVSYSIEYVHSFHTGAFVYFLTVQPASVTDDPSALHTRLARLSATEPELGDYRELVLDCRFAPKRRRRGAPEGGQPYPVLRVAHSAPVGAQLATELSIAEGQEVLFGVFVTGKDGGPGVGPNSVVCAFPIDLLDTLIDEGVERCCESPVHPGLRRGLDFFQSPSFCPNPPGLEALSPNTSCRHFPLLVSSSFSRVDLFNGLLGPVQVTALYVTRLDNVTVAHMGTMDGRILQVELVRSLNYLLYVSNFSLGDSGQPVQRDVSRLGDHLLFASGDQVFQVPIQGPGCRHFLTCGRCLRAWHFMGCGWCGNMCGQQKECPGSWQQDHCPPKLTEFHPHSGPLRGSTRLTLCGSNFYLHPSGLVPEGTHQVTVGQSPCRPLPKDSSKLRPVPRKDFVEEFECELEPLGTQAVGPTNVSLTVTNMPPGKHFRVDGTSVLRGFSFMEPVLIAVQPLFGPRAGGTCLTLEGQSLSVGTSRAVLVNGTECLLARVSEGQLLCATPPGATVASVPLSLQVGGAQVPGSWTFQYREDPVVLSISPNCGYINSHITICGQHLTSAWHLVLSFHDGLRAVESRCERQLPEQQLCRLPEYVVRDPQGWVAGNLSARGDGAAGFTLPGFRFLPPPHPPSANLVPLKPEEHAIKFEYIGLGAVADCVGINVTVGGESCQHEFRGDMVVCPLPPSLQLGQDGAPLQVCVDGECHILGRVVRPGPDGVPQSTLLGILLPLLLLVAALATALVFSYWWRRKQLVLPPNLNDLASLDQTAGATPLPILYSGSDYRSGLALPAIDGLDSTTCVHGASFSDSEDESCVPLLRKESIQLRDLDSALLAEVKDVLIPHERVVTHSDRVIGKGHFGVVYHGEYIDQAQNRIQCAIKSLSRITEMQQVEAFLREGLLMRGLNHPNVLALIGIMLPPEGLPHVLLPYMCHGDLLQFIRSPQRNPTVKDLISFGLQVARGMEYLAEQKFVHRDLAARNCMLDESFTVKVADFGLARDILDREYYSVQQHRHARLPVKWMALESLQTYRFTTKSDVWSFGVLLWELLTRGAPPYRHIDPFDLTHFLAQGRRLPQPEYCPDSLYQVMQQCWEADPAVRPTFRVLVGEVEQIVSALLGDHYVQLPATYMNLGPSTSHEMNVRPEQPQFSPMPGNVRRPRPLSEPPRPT
smiles,measurement,setting,value
CN(C)CC(O)CNC(=O)c1ccc(C#Cc2c(N)ncc3ccc(Cl)cc23)cc1 (stereo not drawn) [HSM1702],Percentage kinase inhibition PAK1,PAK1,1%
same,Percentage kinase inhibition TYK2,TYK2,2%
same,Percentage kinase inhibition EPHA3,EPHA3,0%
same,Percentage kinase inhibition MELK,MELK,12%
same,Percentage kinase inhibition CDK1/cyclin E,CDK1/cyclin E,13%
same,Percentage kinase inhibition PKD2/PRKD2,PKD2/PRKD2,6%
same,Percentage kinase inhibition MUSK,MUSK,35%
same,Percentage kinase inhibition TAOK1,TAOK1,12%
same,Percentage kinase inhibition CDK4/cyclin D1,CDK4/cyclin D1,16%
same,Percentage kinase inhibition CDK9/cyclin T2,CDK9/cyclin T2,65%
same,Percentage kinase inhibition IGF1R,IGF1R,3%
same,% inhibition of c-Kit,c-kit,83%
same,Percentage kinase inhibition MEKK1,MEKK1,4%
same,Percentage kinase inhibition RON/MST1R,RON/MST1R,0%
same,Percentage kinase inhibition IR,IR,9%
same,Percentage kinase inhibition RAF1,RAF1,5%
same,Percentage kinase inhibition P38a/MAPK14,P38a/MAPK14,0%
same,Percentage kinase inhibition JNK1,JNK1,0%
same,Percentage kinase inhibition KSR1,KSR1,0%
same,Percentage kinase inhibition RET,RET,15%
same,Percentage kinase inhibition HIPK1,HIPK1,42%
same,Percentage kinase inhibition AKT2,AKT2,18%
same,Percentage kinase inhibition TGFBR2,TGFBR2,0%
same,Percentage kinase inhibition PDK1/PDHK1,PDK1/PDHK1,0%
same,Percentage kinase inhibition BRK,BRK,18%
same,Percentage kinase inhibition CSK,CSK,1%
same,Percentage kinase inhibition LYN,LYN,6%
same,Percentage kinase inhibition DDR2,DDR2,0%
same,Percentage kinase inhibition IRR/INSRR,IRR/INSRR,10%
same,Percentage kinase inhibition CDK2/cyclin A,CDK2/cyclin A,18%
same,Percentage kinase inhibition FER,FER,0%
Cc1ccc(C(=O)Nc2ccc(CN3CCN(C)CC3)c(C(F)(F)F)c2)cc1C#Cc1cc(N)nc2ccccc12 [HSN285],inhibition at 0.5 µM,c-kit,31%
same,Percentage kinase inhibition RAF1,RAF1,90%
Cc1ccc(C(=O)Nc2ccc(CN3CCN(C)CC3)c(C(F)(F)F)c2)cc1C#Cc1c(N)ncc2ccc(Cl)cc12 [HSN286],inhibition at 0.5 µM,PAK1,0%
same,inhibition at 0.5 µM,TYK2,0%
same,inhibition at 0.5 µM,EPHA3,96%
same,inhibition at 0.5 µM,MELK,27%
same,inhibition at 0.5 µM,CDK1/cyclin E,0%
same,inhibition at 0.5 µM,PKD2/PRKD2,7%
same,inhibition at 0.5 µM,MUSK,13%
same,inhibition at 0.5 µM,TAOK1,0%
same,inhibition at 0.5 µM,CDK4/cyclin D1,0%
same,inhibition at 0.5 µM,CDK9/cyclin T2,0%
same,inhibition at 0.5 µM,IGF1R,0%
same,inhibition at 0.5 µM,c-kit,61%
same,inhibition at 0.5 µM,MEKK1,6%
same,inhibition at 0.5 µM,RON/MST1R,0%
same,inhibition at 0.5 µM,IR,16%
same,Percentage kinase inhibition RAF1,RAF1,94%
same,inhibition at 0.5 µM,P38a/MAPK14,81%
same,inhibition at 0.5 µM,JNK1,7%
same,inhibition at 0.5 µM,KSR1,0%
same,inhibition at 0.5 µM,RET,100%
same,inhibition at 0.5 µM,HIPK1,0%
same,inhibition at 0.5 µM,AKT2,3%
same,inhibition at 0.5 µM,TGFBR2,15%
same,inhibition at 0.5 µM,PDK1/PDHK1,0%
same,inhibition at 0.5 µM,BRK,92%
same,inhibition at 0.5 µM,CSK,93%
same,inhibition at 0.5 µM,LYN,98%
same,inhibition at 0.5 µM,DDR2,77%
same,inhibition at 0.5 µM,IRR/INSRR,0%
same,inhibition at 0.5 µM,CDK2/cyclin A,0%
same,inhibition at 0.5 µM,FER,0%
COc1cc2nc(N)nc(C#Cc3cc(C(=O)Nc4ccc(CN5CCN(C)CC5)c(C(F)(F)F)c4)ccc3C)c2cc1OC [HSN325],inhibition at 0.5 µM,PAK1,0%
same,inhibition at 0.5 µM,TYK2,0%
same,inhibition at 0.5 µM,EPHA3,6%
same,inhibition at 0.5 µM,MELK,0%
same,inhibition at 0.5 µM,CDK1/cyclin E,0%
same,inhibition at 0.5 µM,PKD2/PRKD2,0%
same,inhibition at 0.5 µM,MUSK,0%
same,inhibition at 0.5 µM,TAOK1,0%
same,inhibition at 0.5 µM,CDK4/cyclin D1,0%
same,inhibition at 0.5 µM,CDK9/cyclin T2,0%
same,inhibition at 0.5 µM,IGF1R,0%
same,inhibition at 0.5 µM,MEKK1,4%
same,inhibition at 0.5 µM,RON/MST1R,0%
same,inhibition at 0.5 µM,IR,9%
same,inhibition at 0.5 µM,P38a/MAPK14,5%
same,inhibition at 0.5 µM,JNK1,0%
same,inhibition at 0.5 µM,KSR1,0%
same,inhibition at 0.5 µM,RET,96%
same,inhibition at 0.5 µM,HIPK1,0%
same,inhibition at 0.5 µM,AKT2,0%
same,inhibition at 0.5 µM,TGFBR2,0%
same,inhibition at 0.5 µM,PDK1/PDHK1,1%
same,inhibition at 0.5 µM,BRK,0%
same,inhibition at 0.5 µM,CSK,0%
same,inhibition at 0.5 µM,LYN,69%
same,inhibition at 0.5 µM,DDR2,81%
same,inhibition at 0.5 µM,IRR/INSRR,0%
same,inhibition at 0.5 µM,CDK2/cyclin A,0%
same,inhibition at 0.5 µM,FER,12%
"Cc1ccc(C(=O)Nc2ccc(CN3CCN(C)CC3)c(C(F)(F)F)c2)cc1C#Cc1cnc(N)c2ccccc12 [HSN334, 3-((1-aminoisoquinolin-4-yl)ethynyl)-4-methyl-N-(4-((4-methylpiperazin-1-yl)methyl)-3-(trifluoromethyl)phenyl)benzamide]",inhibition at 0.5 µM,c-kit,73%
same,Percentage kinase inhibition RAF1,RAF1,96%
same,inhibition at 0.5 µM,RET,100%
"Cc1ccc(C(=O)Nc2ccc(CN3CCN(C)CC3)c(C(F)(F)F)c2)cc1C#Cc1cnc(N)c2ncccc12 [HSN356, 3-((8-amino-1,7-naphthyridin-5-yl)ethynyl)-4-methyl-N-(4-((4-methylpiperazin-1-yl)methyl)-3-(trifluoromethyl)phenyl)benzamide]",inhibition at 0.5 µM,c-kit,87%
same,Percentage kinase inhibition RAF1,RAF1,100%
same,inhibition at 0.5 µM,RET,100%
